The record followed here is PubChem BioAssay (NCI).

Structures are written as SMILES.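 All cell lines were grown in 96-well plates and treated with compound for 48 hours. TGI marks complete inhibition of growth.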

Test systems include 786-0 renal; HCT-116 colon; SW-620 colon; SNB-19 CNS; CAKI-1 renal; KM12 colon; SK-OV-3 ovarian; MCF7 breast; HT29 colon; IGROV1 ovarian; K-562 leukemia; OVCAR-5 ovarian; OVCAR-4 ovarian; NCI/ADR-RES ovarian; NCI-H226 lung; SF-268 CNS; T-47D breast.
Common to all, as to experiment: NCI-60 cell line screen, 48 h

Take `CNc1nnc(CCCCCCCCc2nnc(NC)o2)o1`: the TGI in the assay with 786-0 renal was 47 µM; in the assay with HCT-116 colon it was 41.9 µM; with SW-620 colon, more than 100 µM; with SNB-19 CNS, more than 100 µM; with CAKI-1 renal it was 31.3 µM; in the assay with KM12 colon, more than 100 µM. Besides, the TGI with SK-OV-3 ovarian was more than 100 µM; with MCF7 breast, 38.3 µM; in the assay with HT29 colon, 90.8 µM; with IGROV1 ovarian it was more than 100 µM; in the assay on K-562 leukemia, more than 100 µM; in the assay on OVCAR-5 ovarian it was more than 100 µM. In addition, the TGI in the assay with OVCAR-4 ovarian, in the assay on NCI/ADR-RES ovarian and with NCI-H226 lung was more than 100 µM in each case.

With `CC[C@@]1(O)C(=O)OCc2c1cc1n(c2=O)Cc2c-1nc1ccc(O)cc1c2[Si](C)(C)C(C)(C)C`, the TGI is less than 0.0255 µM with 786-0 renal; 0.147 µM in the assay on HCT-116 colon; 10.9 µM in the assay on SW-620 colon; less than 0.0137 µM in the assay on CAKI-1 renal; 0.131 µM in the assay on KM12 colon; 0.804 µM in the assay with SF-268 CNS. For the same compound, the TGI with SK-OV-3 ovarian was more than 53 µM; in the assay on MCF7 breast, more than 41.2 µM; in the assay with HT29 colon, 4.39 µM; in the assay on IGROV1 ovarian, 7.41 µM; with K-562 leukemia, more than 94.5 µM; in the assay with OVCAR-5 ovarian, 2.58 µM. The figures for the TGI with OVCAR-4 ovarian, with NCI/ADR-RES ovarian and in the assay with NCI-H226 lung were 0.174 µM, 4.64 µM and 0.015 µM, respectively.

Consider `CCOC(=O)c1ccc(Nc2nc3ccccc3nc2-c2cccs2)cc1`, for which the TGI in the assay on 786-0 renal was more than 100 µM; in the assay on HCT-116 colon, more than 100 µM; in the assay on T-47D breast it was 56.2 µM; in the assay with SNB-19 CNS it was more than 100 µM; in the assay with CAKI-1 renal, more than 100 µM; with KM12 colon, more than 100 µM. Moreover, the TGI in the assay on SF-268 CNS, in the assay on MCF7 breast, in the assay on IGROV1 ovarian, in the assay on K-562 leukemia, with OVCAR-5 ovarian and with NCI/ADR-RES ovarian was more than 100 µM each time. Besides, in the assay with NCI-H226 lung, the TGI is more than 100 µM.

As to `O=C(O)CCC(=O)OCN1C(=O)C2C3C=CC(C2C1=O)C1C2C(=O)N(COC(=O)CCC(=O)O)C(=O)C2C31` (configuration not stated), the TGI in the assay with 786-0 renal was more than 100 µM; in the assay on HCT-116 colon, more than 54.3 µM; in the assay on SW-620 colon it was more than 68.4 µM; in the assay on SNB-19 CNS, more than 100 µM; with CAKI-1 renal, more than 100 µM; in the assay with KM12 colon, more than 100 µM. Moreover, the TGI in the assay on SF-268 CNS, in the assay with SK-OV-3 ovarian, in the assay on HT29 colon, with IGROV1 ovarian, with K-562 leukemia and in the assay with OVCAR-5 ovarian was more than 100 µM throughout. In addition, the TGI in the assay on OVCAR-4 ovarian and in the assay with NCI-H226 lung was more than 100 µM each time.

With `COc1ccc(C#Cn2nnc3ccccc32)cc1`, the TGI with 786-0 renal, in the assay with HCT-116 colon, in the assay with SW-620 colon, with SNB-19 CNS, with CAKI-1 renal and with KM12 colon was more than 100 µM throughout. In addition, the TGI in the assay on SF-268 CNS, with MCF7 breast, with HT29 colon, with IGROV1 ovarian, with K-562 leukemia and in the assay on OVCAR-5 ovarian was more than 100 µM throughout. In addition, the TGI in the assay on OVCAR-4 ovarian, in the assay with NCI/ADR-RES ovarian and with NCI-H226 lung was more than 100 µM each time.

Turning to `CCN1C/C(=C\c2ccc(Cl)cc2)c2nc(N)c(C#N)c(-c3ccc(Cl)cc3)c2C1`, the TGI in the assay with 786-0 renal, in the assay on HCT-116 colon, in the assay on SW-620 colon, in the assay with SNB-19 CNS, in the assay on CAKI-1 renal and with KM12 colon was more than 100 µM in each case. Further, the TGI in the assay with SF-268 CNS, in the assay on SK-OV-3 ovarian, in the assay with MCF7 breast, in the assay with HT29 colon, in the assay with IGROV1 ovarian and in the assay with K-562 leukemia was more than 100 µM throughout. The TGI in the assay on OVCAR-5 ovarian, in the assay with OVCAR-4 ovarian, in the assay with NCI/ADR-RES ovarian and in the assay on NCI-H226 lung was more than 100 µM in each case.

As for `CN(Cc1cnc2nc(N)nc(N)c2n1)c1ccc(C(=O)NC23CC4CC(CC(C4)C2)C3)cc1`, the TGI in the assay with 786-0 renal was 57.1 µM; in the assay on HCT-116 colon it was more than 100 µM; in the assay on T-47D breast, 39 µM; with SW-620 colon it was more than 100 µM; in the assay with SNB-19 CNS, 18.6 µM; with CAKI-1 renal, 27.8 µM. Besides, the TGI in the assay on KM12 colon came to 24.8 µM; in the assay on SF-268 CNS, 22.7 µM; in the assay with SK-OV-3 ovarian it was 31.9 µM; in the assay with MCF7 breast, 23.6 µM; with IGROV1 ovarian, 21.8 µM; with K-562 leukemia it was 65.8 µM. For the same compound, the figures for the TGI with OVCAR-5 ovarian, in the assay with NCI/ADR-RES ovarian and in the assay with NCI-H226 lung were 24.7 µM, more than 100 µM and 27.3 µM, respectively.

In the case of `O=C(COc1ccc(OCC(=O)N2C(=O)CC(=O)N(c3ccc(Cl)cc3)C2=S)cc1)N1C(=O)CC(=O)N(c2ccc(Cl)cc2)C1=S`, the TGI in the assay on 786-0 renal is 80.1 µM; with HCT-116 colon, 25.2 µM; with SW-620 colon, more than 100 µM; in the assay with SNB-19 CNS it was more than 100 µM; in the assay on KM12 colon, 41.6 µM; with SF-268 CNS it was more than 100 µM. Further, the TGI in the assay on SK-OV-3 ovarian, in the assay with MCF7 breast, in the assay with HT29 colon, in the assay with IGROV1 ovarian, in the assay on K-562 leukemia and with OVCAR-5 ovarian was more than 100 µM in each case. Besides, the TGI was more than 100 µM in the assay with OVCAR-4 ovarian, 93.4 µM in the assay with NCI/ADR-RES ovarian and 85.7 µM in the assay with NCI-H226 lung.

For `CC1C(NNC(N)=O)Oc2cc3c(cc2C1c1ccccc1O)OCO3` (configuration not stated), the TGI is 76.8 µM in the assay with HCT-116 colon; more than 100 µM in the assay on T-47D breast; 32.8 µM with SW-620 colon; more than 100 µM in the assay on SNB-19 CNS; more than 100 µM in the assay on CAKI-1 renal; more than 100 µM in the assay with KM12 colon. Besides, the TGI was more than 100 µM with SF-268 CNS; more than 100 µM in the assay with SK-OV-3 ovarian; more than 100 µM in the assay with MCF7 breast; more than 100 µM with HT29 colon; 86.4 µM in the assay with IGROV1 ovarian; 64.1 µM in the assay with K-562 leukemia. The TGI in the assay on OVCAR-5 ovarian and with NCI-H226 lung was more than 100 µM in each case.
